Source: patent US12172974B2 (Biohaven Pharmaceutical Holding Company Ltd., priority 2012, dated 2024)

test: Metabolic stability in pooled human liver microsomes; assay type: in vitro ADME; details: human liver microsomes 0.5 mg/mL, 1 uM, 37° C., NADPH
Description: (§1) Metabolic Stability: In vitro metabolic stability was determined in pooled mouse or human liver microsomes (BD Gentest) at a protein concentration of 0.5 mg/mL in reaction buffer (100 mM KH2PO4, pH 7.4 and 12 mM MgCl2). Each drug candidate was added to a final concentration of 1 uM. This mixture was pre-warmed to 37° C. for 10 minutes prior to starting the reaction with the addition of β-Nicotinamide adenine dinucleotide 2′-phosphate reduced (NADPH) to a final concentration of 1 mM. A parallel incubation lacking NADPH served as the control. After incubation for 30 min at 37° C., the reactions were quenched by the addition of acetonitrile containing 0.1% formic acid and internal standard, vortex mixed for 2 minutes and centrifuged at 4000 rpm for 10 minutes to pellet the precipitated protein. The resulting supernatant containing the drug candidate and its potential metabolites was diluted 5-fold with water containing 0.1% formic acid and submitted to LC-MS/MS analysis. […]
(§2) LC-MS/MS Analysis: An aliquot from each incubation was analyzed by LC-MS/MS with SRM detection in the positive ionization mode using an ABSciex API 5500 QTrap Mass Spectrometer interfaced via the ABSciex Turbo V IonSpray source (ESI) to an Eksigent ExpressHT LC system. […] A fast gradient, from 15 to 85% organic in 2.5 minutes, with run time of 5.0 minutes, and flow rate of 50 ul/min was utilized. Peak areas were integrated using MultiQuant v2.0 software from ABSciex.

| Metabolic Stability human (30 minutes): percent of prodrug metabolized to riluzole | Structure (SMILES) |
| --- | --- |
| 10% | CN(C)CCOC(=O)Nc1nc2ccc(OC(F)(F)F)cc2s1 [Cpd 18, (6-Trifluoromethoxy-benzothiazol-2-yl)-carbamic acid 2-dimethylamino-ethyl ester] |
| 0% | CN(C)CCCOC(=O)Nc1nc2ccc(OC(F)(F)F)cc2s1 [Cpd 19, (6-Trifluoromethoxy-benzothiazol-2-yl)-carbamic acid 3-dimethylamino-propyl ester] |
| 0% | O=C(O)CCC(=O)Nc1nc2ccc(OC(F)(F)F)cc2s1 [Cpd 20, N-(6-Trifluoromethoxy-benzothiazol-2-yl)-succinamic acid] |
| 34% | COC(=O)CCC(=O)Nc1nc2ccc(OC(F)(F)F)cc2s1 [Cpd 21, N-(6-Trifluoromethoxy-benzothiazol-2-yl)-succinamic acid methyl ester] |
| 21% | CC(C)(C)OC(=O)CCC(=O)Nc1nc2ccc(OC(F)(F)F)cc2s1 [Cpd 22, N-(6-Trifluoromethoxy-benzothiazol-2-yl)-succinamic acid tert-butyl ester] |

test: Stability in Simulated Intestinal Fluid (SIF); assay type: in vitro ADME; details: 37° C., 0.01 mg/mL
Description: (§3) Stability in Simulated Gastric Fluid (SGF) and Simulated Intestinal Fluid (SIF). Procedure from Baudy et. al. (J. Med. Chem. 2009, 52, 771-778) used. The physiological stability of prodrugs was determined by examining the stability of the compound in SGF, and SIF at 37° C. The compounds were prepared in a 9:1 mixture of the appropriate test component (SGF, SIF) and acetonitrile to a final concentration of 0.01 mg/mL. The samples were thoroughly mixed and maintained at 37° C. Each sample was injected consecutively onto an Agilent 1100 system (Luna C18, 3 μm, 50 mm×3 mm; 1 mL/min; mobile phase of 0.1% trifluoroacetic acid in water/0.1% trifluoroacetic acid in acetonitrile) after a 3 h period. The percent remaining of prodrug was calculated by comparing the area of prodrug compound versus riluzole generated. The identities of the parent compounds and conversion products were confirmed by LC/MS.

| SIF (3 hours): percent of prodrug metabolized to riluzole | Structure (SMILES) |
| --- | --- |
| 0% | CN(C)CCOC(=O)Nc1nc2ccc(OC(F)(F)F)cc2s1 [Cpd 18, (6-Trifluoromethoxy-benzothiazol-2-yl)-carbamic acid 2-dimethylamino-ethyl ester] |
| 0% | CN(C)CCCOC(=O)Nc1nc2ccc(OC(F)(F)F)cc2s1 [Cpd 19, (6-Trifluoromethoxy-benzothiazol-2-yl)-carbamic acid 3-dimethylamino-propyl ester] |
| 0% | O=C(O)CCC(=O)Nc1nc2ccc(OC(F)(F)F)cc2s1 [Cpd 20, N-(6-Trifluoromethoxy-benzothiazol-2-yl)-succinamic acid] |
| 0% | COC(=O)CCC(=O)Nc1nc2ccc(OC(F)(F)F)cc2s1 [Cpd 21, N-(6-Trifluoromethoxy-benzothiazol-2-yl)-succinamic acid methyl ester] |
| 0% | CC(C)(C)OC(=O)CCC(=O)Nc1nc2ccc(OC(F)(F)F)cc2s1 [Cpd 22, N-(6-Trifluoromethoxy-benzothiazol-2-yl)-succinamic acid tert-butyl ester] |

test: Metabolic stability in pooled mouse liver microsomes; assay type: in vitro ADME; details: mouse liver microsomes 0.5 mg/mL, 1 uM, 37° C., NADPH
Description: as §1, §2

| Metabolic Stability mouse (30 minutes): percent of prodrug metabolized to riluzole | Structure (SMILES) |
| --- | --- |
| 13% | CN(C)CCOC(=O)Nc1nc2ccc(OC(F)(F)F)cc2s1 [Cpd 18, (6-Trifluoromethoxy-benzothiazol-2-yl)-carbamic acid 2-dimethylamino-ethyl ester] |
| 71% | CN(C)CCCOC(=O)Nc1nc2ccc(OC(F)(F)F)cc2s1 [Cpd 19, (6-Trifluoromethoxy-benzothiazol-2-yl)-carbamic acid 3-dimethylamino-propyl ester] |
| 70% | O=C(O)CCC(=O)Nc1nc2ccc(OC(F)(F)F)cc2s1 [Cpd 20, N-(6-Trifluoromethoxy-benzothiazol-2-yl)-succinamic acid] |
| 77% | COC(=O)CCC(=O)Nc1nc2ccc(OC(F)(F)F)cc2s1 [Cpd 21, N-(6-Trifluoromethoxy-benzothiazol-2-yl)-succinamic acid methyl ester] |
| 0% | CC(C)(C)OC(=O)CCC(=O)Nc1nc2ccc(OC(F)(F)F)cc2s1 [Cpd 22, N-(6-Trifluoromethoxy-benzothiazol-2-yl)-succinamic acid tert-butyl ester] |

test: Plasma stability in fresh mouse plasma; assay type: in vitro ADME; details: 1 uM, 37° C.
Description: (§4) Plasma Stability: Assessment of plasma stability was carried out by individual incubations of drug candidates in fresh mouse or human control plasma at a concentration of 1 uM for 1 hour at 37° C. After which, the samples were de-proteinized by addition of 2 volumes of acetonitrile containing 0.1% formic acid and internal standard, vortex mixed for 2 minutes and centrifuged at 4000 rpm for 10 minutes to pellet precipitated protein. The resulting supernatant containing the drug candidates was diluted 5-fold with water containing 0.1% formic acid and submitted to LC-MS/MS analysis. All determinations were done in triplicate. […]
as §2

| Plasma Stability mouse (1 hour): percent of prodrug metabolized to riluzole | Structure (SMILES) |
| --- | --- |
| 3% | CN(C)CCOC(=O)Nc1nc2ccc(OC(F)(F)F)cc2s1 [Cpd 18, (6-Trifluoromethoxy-benzothiazol-2-yl)-carbamic acid 2-dimethylamino-ethyl ester] |
| 0% | CN(C)CCCOC(=O)Nc1nc2ccc(OC(F)(F)F)cc2s1 [Cpd 19, (6-Trifluoromethoxy-benzothiazol-2-yl)-carbamic acid 3-dimethylamino-propyl ester] |
| 0% | O=C(O)CCC(=O)Nc1nc2ccc(OC(F)(F)F)cc2s1 [Cpd 20, N-(6-Trifluoromethoxy-benzothiazol-2-yl)-succinamic acid] |
| 99% | COC(=O)CCC(=O)Nc1nc2ccc(OC(F)(F)F)cc2s1 [Cpd 21, N-(6-Trifluoromethoxy-benzothiazol-2-yl)-succinamic acid methyl ester] |
| 0% | CC(C)(C)OC(=O)CCC(=O)Nc1nc2ccc(OC(F)(F)F)cc2s1 [Cpd 22, N-(6-Trifluoromethoxy-benzothiazol-2-yl)-succinamic acid tert-butyl ester] |

test: Plasma stability in fresh human plasma; assay type: in vitro ADME; details: 1 uM, 37° C.
Description: as §4, §2

| Plasma Stability Human (1 hour): percent of prodrug metabolized to riluzole | Structure (SMILES) |
| --- | --- |
| 0% | CN(C)CCOC(=O)Nc1nc2ccc(OC(F)(F)F)cc2s1 [Cpd 18, (6-Trifluoromethoxy-benzothiazol-2-yl)-carbamic acid 2-dimethylamino-ethyl ester] |
| 0% | CN(C)CCCOC(=O)Nc1nc2ccc(OC(F)(F)F)cc2s1 [Cpd 19, (6-Trifluoromethoxy-benzothiazol-2-yl)-carbamic acid 3-dimethylamino-propyl ester] |
| 16% | O=C(O)CCC(=O)Nc1nc2ccc(OC(F)(F)F)cc2s1 [Cpd 20, N-(6-Trifluoromethoxy-benzothiazol-2-yl)-succinamic acid] |
| 25% | COC(=O)CCC(=O)Nc1nc2ccc(OC(F)(F)F)cc2s1 [Cpd 21, N-(6-Trifluoromethoxy-benzothiazol-2-yl)-succinamic acid methyl ester] |
| 0% | CC(C)(C)OC(=O)CCC(=O)Nc1nc2ccc(OC(F)(F)F)cc2s1 [Cpd 22, N-(6-Trifluoromethoxy-benzothiazol-2-yl)-succinamic acid tert-butyl ester] |

test: Stability in Simulated Gastric Fluid (SGF); assay type: in vitro ADME; details: 37° C., 0.01 mg/mL
Description: as §3

| SGF (3 hours): percent of prodrug metabolized to riluzole | Structure (SMILES) |
| --- | --- |
| 0% | CN(C)CCOC(=O)Nc1nc2ccc(OC(F)(F)F)cc2s1 [Cpd 18, (6-Trifluoromethoxy-benzothiazol-2-yl)-carbamic acid 2-dimethylamino-ethyl ester] |
| 0% | CN(C)CCCOC(=O)Nc1nc2ccc(OC(F)(F)F)cc2s1 [Cpd 19, (6-Trifluoromethoxy-benzothiazol-2-yl)-carbamic acid 3-dimethylamino-propyl ester] |
| 0% | O=C(O)CCC(=O)Nc1nc2ccc(OC(F)(F)F)cc2s1 [Cpd 20, N-(6-Trifluoromethoxy-benzothiazol-2-yl)-succinamic acid] |
| 3% | COC(=O)CCC(=O)Nc1nc2ccc(OC(F)(F)F)cc2s1 [Cpd 21, N-(6-Trifluoromethoxy-benzothiazol-2-yl)-succinamic acid methyl ester] |
| 0% | CC(C)(C)OC(=O)CCC(=O)Nc1nc2ccc(OC(F)(F)F)cc2s1 [Cpd 22, N-(6-Trifluoromethoxy-benzothiazol-2-yl)-succinamic acid tert-butyl ester] |
